In US20150338397A1, “Use of Bufodienolides in Diagnosing and Treating Essential Hypertension” (priority 2014, published 2015):

Tests used:
[1] = in vitro; cited from earlier work
angiotensin-infused rats = assay: Systolic blood pressure in angiotensin-infused rats (ANG); assay type: in vivo; settings: FIG. 1
Excerpt: (§1) FIG. 1. Mean systolic blood pressure (BP) values in sham (SHM) animals, angiotensin-infused rats (ANG), angiotensin infused animals given resibufogenin (ANGR), normal rats rendered hypertensive by the infusion of saline (volume expansion induced hypertensive rats) (NDS), NDS rats given resibufogenin (NDSR).

[2] = system: volume expansion induced hypertensive rats; assay: Systolic blood pressure in saline volume expansion induced hypertensive rats (NDS); assay type: in vivo; settings: NDS rats given resibufogenin (NDSR) vs NDS; FIG. 1
Excerpt: as §1

[3] = system: volume expansion-mediated hypertension; settings: experimental animals; cited from earlier work
[4] = system: animals subjected to angiotensin excess; settings: cited from earlier work
[5] = system: rodent brain contusion model; settings: given 1 hour after the insult; cited from earlier work
[6] = system: preeclampsia in animal models; settings: cited from earlier work

C[C@]12CC[C@H](O)C[C@@]1(O)CC[C@@H]1[C@@H]2CC[C@]2(C)[C@@H](c3ccc(=O)oc3)C[C@H]3O[C@]132 [MBG, marinobufagenin]
Vasoconstrictor action [1]: acts in vitro as a vasoconstrictor

angiotensin (DRVYIHPF; Angiotensin-2; UniProt P01019 25-32, looked up) [the major vasoconstrictor in the human body; infused to render rats hypertensive]
Mean systolic blood pressure (BP), effect of angiotensin infusion (angiotensin-infused rats; angiotensin-infused rats (ANG) vs sham (SHM)): raised blood pressure equivalently

C[C@]12CC[C@H](O)C[C@H]1CC[C@@H]1[C@@H]2CC[C@]2(C)[C@@H](c3ccc(=O)oc3)C[C@H]3O[C@]132 [RBG, epoxy-3β-hydroxy-5β-bufa-20,22-dienolide]
Mean systolic blood pressure (BP) [2]: reduced blood pressure | Mean systolic blood pressure (BP) (angiotensin-infused rats; angiotensin infused animals given resibufogenin (ANGR) vs ANG): only in the volume expanded animals | Blood pressure elevations [3]: resolves blood pressure elevations | Elevated blood pressure [4]: does not lower elevated blood pressure | Tissue injury [5]: amelioration of tissue injury | Prevention of preeclampsia [6]: prevents preeclampsia
